We go through 30 compounds from patent US20230234942A1, “COMPOUNDS FOR TREATING HUNTINGTON'S DISEASE” (PTC Therapeutics, Inc., priority 2020, published 2023).

The subject of this experiment is Endogenous Huntingtin Protein. As to the kind of experiment: Endogenous Huntingtin Protein Assay (ELISA-based MSD electrochemiluminescence). It is filed as cell-based. Particulars: Table 2; MSD plates coated with MW1 (expanded polyglutamine) or MAB2166 capture antibody; "inactive" = result above the detection limit of the assay. How it is done:
Compounds of Formula (I) were tested using the Meso Scale Discovery (MSD) Assay provided in International Application No. PCT/US2016/066042, filed on Dec. 11, 2016 and claiming priority to U.S. Provisional Application 62/265,652 filed on Dec. 10, 2015, the entire contents of which are incorporated herein by reference.
The Endogenous Huntingtin Protein assay used in Biological Example 1 was developed using the ELISA-based MSD electrochemiluminescence assay platform.
Meso Scale Discovery (MSD) 96-well or 384-well plates were coated overnight at 4° C. with MW1 (expanded polyglutamine) or MAB2166 monoclonal antibody (for capture) at a concentration of 1 μg/mL in PBS (30 μL per well). Plates were then washed three times with 300 μL wash buffer (0.05% Tween-20 in PBS) and blocked (100 μL blocking buffer; 5% BSA in PBS) for 4-5 hours at room temperature with rotational shaking and then washed three times with wash buffer.
Samples (25 μL) were transferred to the antibody-coated MSD plate and incubated overnight at 4° C. After removal of the lysates, the plate was washed three times with wash buffer, and 25 μL of #56565 (Cell signaling; rabbit monoclonal) secondary antibody (diluted to 0.25 μg/mL in 0.05% Tween-20 in blocking buffer) was added to each well and incubated with shaking for 1 Hour at room temperature. Following incubation with the secondary antibody, the wells were rinsed with wash buffer after which 25 μL of goat anti-rabbit SULFO TAG secondary detection antibody (required aspect of the MSD system) (diluted to 0.25 μg/mL in 0.05% Tween-20 in blocking buffer) was added to each well and incubated with shaking for 1 hour at room temperature. After rinsing three times with wash buffer, 150 μL of read buffer T with surfactant (MSD) were added to each empty well, and the plate was imaged on a SI 6000 imager (MSD) according to manufacturers' instructions provided for 96- or 384-well plates.
(In an ELISA, binding on a coated surface is turned into a signal by an enzyme label.)
`C[C@@H]1CN(c2ncc(-c3ccc(-c4cn[nH]c4F)cc3O)nn2)C[C@H](C2CC2)N1` [Cpd 221, 2-{3-[(3S,5R)-3-cyclopropyl-5-methylpiperazin-1-yl]-1,2,4-triazin-6-yl]-5-(5-fluoro-1H-pyrazol-4-yl)phenol] registered an IC50 of 4.4 nM. That is a single-digit nanomolar value. Same read-out and setting: under `Oc1cc(-c2cnn3c2CCC3)ccc1-c1cnc(N2CCN[C@@H](C3CC3)C2)nn1` [Cpd 276, 2-{3-[(3S)-3-cyclopropylpiperazin-1-yl]-1,2,4-triazin-6-yl}-5-(5,6-dihydro-4H-pyrrolo[1,2-b]pyrazol-3-yl)phenol] stands 3.7 nM; under `[2H]C([2H])([2H])n1cc(-c2ccc(-c3cnc(N4C[C@@H](C)N(C)[C@@H](C)C4)nn3)c(O)c2)cn1` [Cpd 51, 5-[1-(^2H3)methyl-1H-pyrazol-4-yl]-2-{3-[(3R,5S)-3,4,5-trimethylpiperazin-1-yl]-1,2,4-triazin-6-yl}phenol], 330 nM.

Turning to `Oc1cc(-c2cn[nH]c2)ccc1-c1cnc(N2CCN(C3CC3)CC2)nn1` [Cpd 63, 2-[3-(4-cyclopropylpiperazin-1-yl)-1,2,4-triazin-6-yl]-5-(1H-pyrazol-4-yl)phenol], the “IC50 (nM)” value is “inactive”. As to `CC(C)(O)C1CN(c2ncc(-c3ccc(-c4c[nH]nc4F)cc3O)nn2)CCN1` (stereo not drawn) [Cpd 4, 5-(3-fluoro-1H-pyrazol-4-yl)-2-{3-[3-(2-hydroxypropan-2-yl)piperazin-1-yl]-1,2,4-triazin-6-yl}phenol], the IC50 was determined as 4.5 nM. Same read-out and setting: the figure for `Oc1cc(-c2cn[nH]c2)ccc1-c1cnc(N2CCNC3(CCC3)C2)nn1` [Cpd 50, 2-[3-(5,8-diazaspiro[3.5]nonan-8-yl)-1,2,4-triazin-6-yl]-5-(1H-pyrazol-4-yl)phenol] is 312 nM; for `Cc1cc(-c2ccc(-c3cnc(N4CCN[C@@H](C(C)C)C4)nn3)c(O)c2)cc2cn(C)nc12` [Cpd 140, 5-(2,7-dimethyl-2H-indazol-5-yl)-2-{3-[(3S)-3-(propan-2-yl)piperazin-1-yl]-1,2,4-triazin-6-yl}phenol] it is 5.8 nM; for `OC[C@@H]1CN(c2ncc(-c3ccc(-n4nccn4)cc3O)nn2)CCN1` [Cpd 45, 2-{3-[(3S)-3-(hydroxymethyl)piperazin-1-yl]-1,2,4-triazin-6-yl}-5-(2H-1,2,3-triazol-2-yl)phenol] it is 142 nM. Still for that read-out and setting: the figure for `CC(C)[C@H]1CN(c2ncc(-c3c(O)cc(-c4cn[nH]c4F)cc3F)nn2)CCN1` [Cpd 283, 3-fluoro-5-(5-fluoro-1H-pyrazol-4-yl)-2-{3-[(3S)-3-(propan-2-yl)piperazin-1-yl]-1,2,4-triazin-6-yl}phenol] is 7.3 nM; for `Cc1cc(-c2cn[nH]c2)cc(O)c1-c1cnc(N2CCN[C@@H](C(C)C)C2)nn1` [Cpd 127, 3-methyl-2-{3-[(3S)-3-(propan-2-yl)piperazin-1-yl]-1,2,4-triazin-6-yl}-5-(1H-pyrazol-4-yl)phenol] it is 672 nM. Still for that read-out and setting: under `COc1cc(-c2ccc(-c3cnc(N4CCN[C@@H](C5CC5)C4)nn3)c(O)c2)ccn1` [Cpd 251, 2-{3-[(3S)-3-cyclopropylpiperazin-1-yl]-1,2,4-triazin-6-yl]-5-(2-methoxypyridin-4-yl)phenol] stands 18.6 nM. Consider `Oc1cc(-c2cn[nH]c2)ccc1-c1cnc(N2CCNC(c3ccncc3)C2)nn1` (stereo not drawn) [Cpd 62, 5-(1H-pyrazol-4-yl)-2-{3-[3-(pyridin-4-yl)piperazin-1-yl]-1,2,4-triazin-6-yl}phenol], for which inhibition was half-maximal at 2390 nM (IC50).

For `Cn1nc2cc(-c3ccc(-c4cnc(N5CCN[C@@H](C6(C)CC6)C5)nn4)c(O)c3)cnc2n1` [Cpd 241, 2-{3-[(3S)-3-(1-methylcyclopropyl)piperazin-1-yl]-1,2,4-triazin-6-yl}-5-(2-methyl-2H-[1,2,3]triazolo[4,5-b]pyridin-6-yl)phenol], the IC50 came out at 5.7 nM. Same read-out and setting: the figure for `Cc1cn2cc(-c3ccc(-c4cnc(N5C[C@@H](C)N(C)[C@@H](C)C5)nn4)c(O)c3)cc(F)c2n1` [Cpd 94, 5-(8-fluoro-2-methylimidazo[1,2-a]pyridin-6-yl)-2-{3-[(3R,5S)-3,4,5-trimethylpiperazin-1-yl]-1,2,4-triazin-6-yl}phenol] is 8.3 nM.

For the compound `CC(C)[C@H]1CN(c2ncc(-c3ncc(-n4nccn4)cc3O)nn2)CCN1` [Cpd 175, 2-{3-[(3S)-3-(propan-2-yl)piperazin-1-yl]-1,2,4-triazin-6-yl}-5-(2H-1,2,3-triazol-2-yl)pyridin-3-ol], the IC50 worked out at 236 nM. The same measure, in the same setting: under `COc1cc(-c2cc(O)c(-c3cnc(N4CCN[C@@H](C(C)C)C4)nn3)c(F)c2)ncn1` [Cpd 28, 3-fluoro-5-(6-methoxypyrimidin-4-yl)-2-{3-[(3S)-3-(propan-2-yl)piperazin-1-yl]-1,2,4-triazin-6-yl}phenol] stands 26.2 nM.

On to `Cc1cn2cc(-c3ccc(-c4cnc(N5CCN(C)[C@H](C)C5)nn4)c(O)c3)cc(F)c2n1` [Cpd 107, 2-{3-[(3R)-3,4-dimethylpiperazin-1-yl]-1,2,4-triazin-6-yl}-5-(8-fluoro-2-methylimidazo[1,2-a]pyridin-6-yl)phenol], for which the IC50 was found to be 16.8 nM. For the compound `Cc1ccc2oc(-c3ccc(-c4cnc(N5C[C@@H](C)N[C@@H](C)C5)nn4)c(O)c3)cc2n1` [Cpd 120, 2-{3-[(3R,5S)-3,5-dimethylpiperazin-1-yl]-1,2,4-triazin-6-yl}-5-(5-methylfuro[3,2-b]pyridin-2-yl)phenol], the “IC50 (nM)” value was “inactive”. On to `CC(C)[C@H]1CN(c2ncc(-c3ccc(-c4c[nH]nc4F)cc3O)nn2)CCN1` [Cpd 3, 5-(3-fluoro-1H-pyrazol-4-yl)-2-{3-[(3S)-3-(propan-2-yl)piperazin-1-yl]-1,2,4-triazin-6-yl}phenol], for which the IC50 is 4.4 nM. This counts as single-digit nanomolar.

As to `CN1CCN(c2ncc(-c3ccc(-c4cn[nH]c4)cc3O)nn2)CC1C1COC1` (stereo not drawn) [Cpd 187, 2-{3-[4-methyl-3-(oxetan-3-yl)piperazin-1-yl]-1,2,4-triazin-6-yl}-5-(1H-pyrazol-4-yl)phenol], the IC50 was 401 nM. The same measure, in the same setting: under `Cc1cn2cc(-c3ccc(-c4cnc(N5C[C@@H](C)N[C@@H](C)C5)nn4)c(O)c3)cc(C#N)c2n1` [Cpd 87, 6-(4-{3-[(3R,5S)-3,5-dimethylpiperazin-1-yl]-1,2,4-triazin-6-yl}-3-hydroxyphenyl)-2-methylimidazo[1,2-a]pyridine-8-carbonitrile] stands 6.4 nM; under `C[C@@H]1CN(c2ncc(-c3ccc(-c4cnc5nn(C)cc5c4)cc3O)nn2)C[C@H](C)N1` [Cpd 97, 2-{3-[(3R,5S)-3,5-dimethylpiperazin-1-yl]-1,2,4-triazin-6-yl}-5-(2-methyl-2H-pyrazolo[3,4-b]pyridin-5-yl)phenol], 9.8 nM; under `CC(C)[C@H]1CN(c2ncc(-c3ccc(-c4cnn(C)n4)cc3O)nn2)CCN1` [Cpd 262, 5-(2-methyl-2H-1,2,3-triazol-4-yl)-2-{3-[(3S)-3-(propan-2-yl)piperazin-1-yl]-1,2,4-triazin-6-yl}phenol], 94.2 nM. Still for that read-out and setting: under `[2H]C([2H])([2H])n1cc(-c2ccc(-c3cnc(N4C[C@@H](C)N[C@@H](C)C4)nn3)c(O)c2)cn1` [Cpd 49, 2-{3-[(3R,5S)-3,5-dimethylpiperazin-1-yl]-1,2,4-triazin-6-yl}-5-[1-(^2H3)methyl-1H-pyrazol-4-yl]phenol] stands 256 nM; under `CC(C)[C@H]1CN(c2ncc(-c3ccc(-c4cnc5nn(C)nc5c4)cc3O)nn2)CCN1` [Cpd 212, 5-(2-methyl-2H-[1,2,3]triazolo[4,5-b]pyridin-6-yl)-2-{3-[(3S)-3-(propan-2-yl)piperazin-1-yl]-1,2,4-triazin-6-yl}phenol], 3.3 nM. The compound `Oc1cc(-c2ncco2)ccc1-c1cnc(N2CCN[C@@H](C3CC3)C2)nn1` [Cpd 233, 2-{3-[(3S)-3-cyclopropylpiperazin-1-yl]-1,2,4-triazin-6-yl}-5-(1,3-oxazol-2-yl)phenol] gave an IC50 of 17.7 nM.

Consider `CCC(C)C1CN(c2ncc(-c3ccc(-c4cn[nH]c4)cc3O)nn2)CCN1` (stereo not drawn) [Cpd 33, 2-{3-[3-(butan-2-yl)piperazin-1-yl]-1,2,4-triazin-6-yl}-5-(1H-pyrazol-4-yl)phenol], for which half-maximal inhibition (IC50) required 41.4 nM.

Regarding `Oc1cc(-c2cn[nH]c2)ccc1-c1cnc(N2CCNC(C3CC3)C2)nn1` (stereo not drawn) [Cpd 5, 2-[3-(3-cyclopropylpiperazin-1-yl)-1,2,4-triazin-6-yl]-5-(1H-pyrazol-4-yl)phenol], the IC50 came out at 6 nM.

For `C[C@@H]1CN(c2ncc(-c3ccc(-c4cn[nH]c4)cc3O)nn2)CCN1` [Cpd 166, 2-{3-[(3R)-3-methylpiperazin-1-yl]-1,2,4-triazin-6-yl}-5-(1H-pyrazol-4-yl)phenol], the IC50 amounted to 192 nM. The same measure, in the same setting: under `CC[C@@H]1CN(c2ncc(-c3ccc(-c4cn[nH]c4)cc3O)nn2)CCN1` [Cpd 48, 2-{3-[(3R)-3-ethylpiperazin-1-yl]-1,2,4-triazin-6-yl}-5-(1H-pyrazol-4-yl)phenol] stands 167 nM.

As usually defined, the IC50 is the concentration that inhibits the measured activity by half. High values mean lower potency, low ones higher potency.
